# PubChem BioAssay (NCI)
# Where “and” joins values, the source holds several entries; their conditions need not be identical. Equal entries are not always repeated.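 Method: 48-hour compound exposure of cells in 96-well plates, five concentrations, linear interpolation of endpoints. GI50 is the concentration that inhibits growth by half. TGI marks complete inhibition of growth.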
# What was measured:
# Test in all cases: inhibition of tumour cell growth, NCI panel, 48 h
# UO-31 renal = tested on: UO-31 renal
# RXF 393 renal = tested on: RXF 393 renal
# NCI-H23 lung = tested on: NCI-H23 lung
# U251 CNS = tested on: U251 CNS
# HCT-15 colon = tested on: HCT-15 colon
# HOP-62 NSCLC = tested on: HOP-62 NSCLC
# SK-MEL-28 melanoma = tested on: SK-MEL-28 melanoma
# KM12 colon = tested on: KM12 colon
# HCT-116 colon = tested on: HCT-116 colon
# OVCAR-4 ovarian = tested on: OVCAR-4 ovarian
Compound,TGI (UO-31 renal),TGI (RXF 393 renal),TGI (NCI-H23 lung),TGI (U251 CNS),TGI (HCT-15 colon),TGI (HOP-62 NSCLC),TGI (SK-MEL-28 melanoma),TGI (KM12 colon),TGI (HCT-116 colon),TGI (OVCAR-4 ovarian),GI50 (UO-31 renal),GI50 (RXF 393 renal),GI50 (NCI-H23 lung),GI50 (U251 CNS),GI50 (HCT-15 colon),GI50 (HOP-62 NSCLC),GI50 (SK-MEL-28 melanoma),GI50 (KM12 colon),GI50 (HCT-116 colon),GI50 (OVCAR-4 ovarian)
CCC1(c2ccncc2)CCC(=O)NC1=O (stereo not drawn),> 100 µM,> 100 µM,> 100 µM,> 100 µM,> 100 µM,> 100 µM,> 100 µM,> 100 µM,> 100 µM,> 100 µM,–,–,–,–,–,–,–,–,–,–
O=C(CN1C(=O)c2ccccc2C1=O)OC1C=CCCC1 (stereo not drawn),> 100 µM,> 100 µM,–,> 100 µM,> 100 µM,> 100 µM,> 100 µM,> 100 µM,> 100 µM,> 100 µM,–,–,–,–,–,–,–,–,–,–
CCCCCCCCCCCCCCCC[N+](C)(C)C,2.27 µM and 10.6 µM,0.244 µM and 0.83 µM,1.51 µM and 3.8 µM,0.271 µM and 1.97 µM,1.85 µM and 10.1 µM,0.54 µM and 3.07 µM,1.72 µM and 6.88 µM,2.79 µM,1.04 µM and 2.57 µM,1.03 µM and 5.95 µM,552 nM and 2180 nM,0.0963 µM and 0.235 µM,292 nM and 1460 nM,139 nM and 567 nM,383 nM and 1880 nM,0.198 µM and 1.33 µM,0.482 µM and 2.24 µM,1360 nM,258 nM and 1010 nM,232 nM and 1520 nM
O=c1cc(-c2ccccc2)oc2cc(OCc3cn(Cc4ccc(F)cc4)nn3)cc(O)c12,–,30.1 µM,> 100 µM,> 100 µM,–,21.7 µM,–,> 100 µM,> 100 µM,–,–,3.58 µM,7700 nM,13900 nM,–,3.76 µM,–,> 100000 nM,5910 nM,–
Cc1cc2cc(Oc3ccnc(Nc4cccc(CS(=O)(=O)NCCN(C)C)c4)n3)ccc2[nH]1,14.9 µM,15.8 µM,23.6 µM,18.4 µM,24.2 µM,21.6 µM,25.1 µM,13.3 µM,14 µM,22.3 µM,3140 nM,3.48 µM,8800 nM,5330 nM,11000 nM,7 µM,12.1 µM,1290 nM,3330 nM,9110 nM
CC(C)NCCCNC1=C(Cl)C(=O)c2ccccc2C1=O,29.2 µM,27.8 µM,4.56 µM,6.82 µM,3.96 µM,27.4 µM,3.92 µM,22.3 µM,5.28 µM,–,14400 nM,14.5 µM,1880 nM,2700 nM,1950 nM,13.8 µM,2.16 µM,9590 nM,2120 nM,–
COc1ccccc1NC(=O)N/C(N)=N/c1nc2ccccc2s1,> 100 µM,0.731 µM,> 100 µM,> 100 µM,> 100 µM,> 100 µM,> 100 µM,> 100 µM,> 100 µM,> 100 µM,389 nM,0.0402 µM,150 nM,65.5 nM,52.6 nM,0.111 µM,30.7 µM,50.5 nM,49.7 nM,218 nM
COc1ccc(OC)c(-c2cn3nc(-c4c[nH]c5ccc(Br)cc45)sc3n2)c1,11.2 µM,8.82 µM,4.82 µM,4.09 µM,5.47 µM,13.3 µM,11.7 µM,6.24 µM,3.28 µM,3.8 µM,1670 nM,3.19 µM,1990 nM,2020 nM,2110 nM,2.7 µM,3.29 µM,2190 nM,1670 nM,1800 nM
CCN(CCc1ccc(F)cc1)c1ccc(CO)c(Cl)c1,23.8 µM,19.9 µM,31 µM,17.3 µM,24.6 µM,26.2 µM,31.2 µM,30 µM,13.5 µM,15.3 µM,11100 nM,4.72 µM,12200 nM,4060 nM,9840 nM,13.1 µM,16.3 µM,15000 nM,1850 nM,2230 nM
CCCCCCCCCCSS(=O)(=O)c1ccc(C)cc1,29 µM,32.4 µM,35.4 µM,14.3 µM,28.2 µM,40.1 µM,10.2 µM,30.4 µM,26.8 µM,32 µM,–,–,–,–,–,–,–,–,–,–
Cc1ccc(S(=O)(=O)NC(C)C(=O)O)cc1 (stereo not drawn),> 100 µM,> 100 µM,> 100 µM,> 100 µM,> 100 µM,–,> 100 µM,> 100 µM,–,> 100 µM,–,–,–,–,–,–,–,–,–,–
CN1NC(c2ccccc2)=C(C#N)C(=O)CC1c1ccccc1Cl (stereo not drawn),–,> 100 µM,> 100 µM,> 100 µM,> 100 µM,94.1 µM,> 100 µM,> 100 µM,> 100 µM,> 100 µM,–,–,–,–,–,–,–,–,–,–
COc1cc(/C=C\c2cc(/C=C\c3ccc(O)c(OC)c3)n(C(=O)Nc3ccc(C(F)(F)F)cc3)n2)ccc1O,–,–,6.48 µM,6.86 µM,9.63 µM,16.2 µM,5.9 µM,5.59 µM,2.94 µM,52.7 µM,–,–,2130 nM,2490 nM,2690 nM,3.6 µM,2.19 µM,2330 nM,1510 nM,3510 nM
O=C(O)c1cc2c3c(c1)[C@H]1C=CC[C@H]1CN3CC1CC=CC21 (stereo partly drawn),> 100 µM,> 100 µM,> 100 µM,> 100 µM,> 100 µM,> 100 µM,–,> 100 µM,> 100 µM,> 100 µM,–,–,–,–,–,–,–,–,–,–
c1ccc(CN2CCC3(CC2)ONC2=NCCN23)cc1,> 100 µM,> 100 µM,> 100 µM,> 100 µM,> 100 µM,> 100 µM,> 100 µM,> 100 µM,> 100 µM,> 100 µM,22300 nM,88.1 µM,54900 nM,60100 nM,46800 nM,> 100 µM,> 100 µM,58500 nM,49100 nM,> 100000 nM
C#Cc1cccc(N2C(=O)CC(=P(c3ccccc3)(c3ccccc3)c3ccccc3)C2=O)c1,> 100 µM,–,> 100 µM,> 100 µM,–,> 100 µM,> 100 µM,–,> 100 µM,> 100 µM,–,–,–,–,–,–,–,–,–,–
